The record followed here is patent US20130172248A1, “3-[4-(PHENYLAMINOOXALYLAMINO)PHENYL]HEX-4-YNOIC ACIDS, PROCESS FOR PREPARATION THEREOF AND USE THEREOF AS A MEDICAMENT” (priority 2012, published 2013).

One experiment has as its target T1, GPCR GPR40 (human) (Homo sapiens, UniProt O14842).
T1 construct: expressed in transfected cells; host or cells: HEK293
Description: In vitro FLIPR assay with recombinant HEK293 cells which express the GPCR GPR40 (intracellular Ca2+). Format: cell-based. The note with it: recombinant HEK293 cells expressing human GPR40; 100% = 10 μM linoleic acid reference agonist; read-out: hGPR40 EC50. Here is the method:
In Vitro FLIPR Assay with Recombinant Cells which Express the GPCR GPR40
Function-testing assays were performed by means of the FLIPR technique (“Fluorescence Imaging Plate Reader”, Molecular Devices Corp.). For this purpose, agonist-induced changes were determined in the intracellular concentration of Ca^2+ in recombinant HEK293 cells which expressed the GPCR GPR40 (human).
For the studies, cells were sown into 96-well microtiter plates (60 000 cells/well) and left to grow overnight. The medium was removed and the cells were incubated in buffer which contained the fluorescent dye Fluo-4. After this loading with dye, the cells were washed, test substance was added and changes were measured in the intracellular Ca^2+ concentration in the FLIPR instrument. Results were presented as the percentage change relative to the control (0%: no test substance added; 100%: 10 μM linoleic acid reference agonist added) and used for calculation of dose/efficacy curves, and the EC50 values were thus determined. The mean effective concentration (EC50) is the dose at which a half-maximum effect is observed.

A further experiment relates to human S1P1 receptor. Description: Determination of S1P1 receptor activation (intracellular calcium release, FLIPR, CHO cells). Format: cell-based. The note with it: compound at 10 μM; in percent of activation by 100 nM S1P. Here is the method: Determination of S1P1 Receptor Activation
The activation of the S1P1 receptor by the chemical compounds described in the present invention disclosure was determined via the S1P1 receptor-mediated release of intracellular calcium.
The CHO (chinese hamster ovarian) cells used here was stably overexpressed with the human S1P1 receptor (Flp-In System, Invitrogen). In order to amplify the signal transduction of the receptor in the direction of a cellular calcium response, a receptor modified at the C terminus was used, which contained the sequence of a modified G protein (Gαi4qi4) (WO 02/04665). The changes in intracellular calcium were determined by means of the calcium-sensitive fluorescent dye Fluo-4 (Invitrogen) in an appropriate plate reader (FLIPR, […]).
To prepare the measurement, the cells were sown in 96-well plates (Becton Dickinson, Biocoat cellware, poly-D-lysine coated, #354640) with 40 000 cells per cavity between 18 and 24 hours before the calcium measurement. For the intervening period, the cells were cultivated in an incubator under 95% air humidity with 5% CO2 gas in a medium based on F-12 Glutamax (Gibco #31765), which was additionally supplemented with 1% (vol/vol) penicillin/streptomycin (PAN, #P06-07100), 10% (vol/vol) fetal calf serum (Hyclone charcoal/dextran treated FBS #SH30068) and Hygromycin B (final concentration 300 mg/l; Invitrogen, #10687-010).
For calcium measurement, the cells were laden beforehand with the acetoxymethyl ester derivative of the Fluo-4 dye (Fluo-4 AM, Invitrogen, #F14202) for 60 min. During the loading, which took place in the incubator under the conditions specified above, the cells were incubated with an HBSS buffer (Hanks' Balanced Salt Solution; Invitrogen #14065049) which had been supplemented with Fluo-4 AM (acetoxymethyl ester of Fluo-4; 2 μM; all figures are based on final concentrations), Pluronic® F-127 (0.05% vol/vol; Invitrogen, #P-3000 MP), HEPES (20 mM; Gibco #15630), probenecid (2.5 mM; Sigma #P-8761) and bovine serum albumin (0.05%; Sigma #A-6003). This buffer was finally adjusted to a pH of 7.5 with sodium hydroxide.
During the loading with Fluo-4, the acetoxymethyl ester is cleaved by intracellular esterases, and so there is intracellular accumulation of the dye. The loading of the cells was ended by washing three times (Tecan, Power Washer) with a wash buffer.
The wash buffer was also used for the later fluorescence-based calcium measurement. In this case, the laden and washed cells were stimulated with the compounds described (dissolved in DMSO; maximum final DMSO concentration 0.3%) in different concentrations. […]
All measurements were conducted as triplicates, and the individual values thereof were averaged for further calculation. The percentage activation of the S1P1 receptor, which was caused in some cases by the compounds described, was calculated using the S1P-related calcium response (positive control). Before this calculation, a background correction took place, by subtracting the value of the base control (DMSO control) from all other fluorescence values detected.
Using the specific cellular fluorescence response at different concentrations of the compounds used, concentrations were calculated at which the cell response was at half maximum (EC50 value). […] Here too, the percentage activation of the receptor was calculated using the positive control (S1P, 100 nM) and base control (DMSO control).
(In general: Calcium flux is commonly read through the fluorescence of an indicator in the cells.)

T1 sequence (O14842 whole entry): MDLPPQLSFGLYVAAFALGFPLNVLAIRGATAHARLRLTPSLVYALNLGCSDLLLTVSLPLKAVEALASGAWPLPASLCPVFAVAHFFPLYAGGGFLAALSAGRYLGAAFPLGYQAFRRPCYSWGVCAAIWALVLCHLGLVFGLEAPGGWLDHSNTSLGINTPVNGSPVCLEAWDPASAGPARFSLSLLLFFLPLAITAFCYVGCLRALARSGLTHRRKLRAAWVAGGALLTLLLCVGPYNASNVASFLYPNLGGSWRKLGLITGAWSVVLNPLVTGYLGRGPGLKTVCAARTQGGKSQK

As for `CC#C[C@@H](CC(=O)O)c1ccc(NC(=O)C(=O)Nc2cc(C(F)(F)F)ccc2C(F)(F)F)cc1` [Example 1, (S)-3-{4-[(2,5-bis(trifluoromethyl)phenylaminooxalyl)amino]phenyl}hex-4-ynoic acid], the EC50 on GPCR GPR40 (human) is 0.4 nM. Moreover, the “S1P1 receptor activation, % activation” value with human S1P1 receptor turned out to be 0%.

Regarding `CC#C[C@@H](CC(=O)O)c1ccc(NC(=O)C(=O)Nc2cccc(C(C)(C)C)c2)cc1` [Example 2, (S)-3-{4-[(3-tert-butylphenylaminooxalyl)amino]phenyl}hex-4-ynoic acid], the EC50 at GPCR GPR40 (human) came out at 2 nM. Also, the “S1P1 receptor activation, % activation” value in the experiment with human S1P1 receptor is given as 1%.

Take `CC#C[C@@H](CC(=O)O)c1ccc(NC(=O)C(=O)Nc2cc(C(F)(F)F)ccc2C)cc1` [Example 3, (S)-3-{4-[(2-methyl-5-trifluoromethylphenylaminooxalyl)amino]phenyl}hex-4-ynoic acid]: the EC50 on GPCR GPR40 (human) was 4 nM. Besides, the “S1P1 receptor activation, % activation” value in the experiment with human S1P1 receptor amounted to 1%.

For `CC#C[C@@H](CC(=O)O)c1ccc(NC(=O)C(=O)Nc2cccc(C(C)C)c2)cc1` [Example 4, (S)-3-{4-[(3-isopropylphenylaminooxalyl)amino]phenyl}hex-4-ynoic acid], the EC50 at GPCR GPR40 (human) was 7 nM. In addition, the “S1P1 receptor activation, % activation” value with human S1P1 receptor is reported as 0%.

For `CC#C[C@@H](CC(=O)O)c1ccc(NC(=O)C(=O)Nc2cc(C(F)(F)F)ccc2Cl)cc1` [Example 5, (S)-3-{4-[(2-chloro-5-trifluoromethylphenylaminooxalyl)amino]phenyl}hex-4-ynoic acid], the EC50 at GPCR GPR40 (human) came out at 2 nM. The “S1P1 receptor activation, % activation” value in the experiment on human S1P1 receptor turned out to be 0%.

With `CC#C[C@H](CC(=O)O)c1ccc(NC(=O)C(=O)Nc2cc(C(F)(F)F)ccc2C(F)(F)F)cc1` [compound 6, (R)-3-{4-[(2,5-bis(trifluoromethyl)phenylaminooxalyl)amino]phenyl}hex-4-ynoic acid, reference compound], the EC50 at GPCR GPR40 (human) is 734 nM.

Take `CC#C[C@H](CC(=O)O)c1ccc(NC(=O)C(=O)Nc2cccc(C(C)(C)C)c2)cc1` [compound 7, (R)-3-{4-[(3-tert-butylphenylaminooxalyl)amino]phenyl}hex-4-ynoic acid, reference compound]: the EC50 at GPCR GPR40 (human) came out at 1550 nM.

With `CC#C[C@H](CC(=O)O)c1ccc(NC(=O)C(=O)Nc2cc(C(F)(F)F)ccc2C)cc1` [compound 8, (R)-3-{4-[(2-methyl-5-trifluoromethylphenylaminooxalyl)amino]phenyl}hex-4-ynoic acid, reference compound], the EC50 on GPCR GPR40 (human) amounted to 1780 nM.

Take `CC#C[C@H](CC(=O)O)c1ccc(NC(=O)C(=O)Nc2cccc(C(C)C)c2)cc1` [compound 9, (R)-3-{4-[(3-isopropylphenylaminooxalyl)amino]phenyl}hex-4-ynoic acid, reference compound]: the EC50 at GPCR GPR40 (human) came out at 2070 nM.

As to `CC#C[C@H](CC(=O)O)c1ccc(NC(=O)C(=O)Nc2cc(C(F)(F)F)ccc2Cl)cc1` [compound 10, (R)-3-{4-[(2-chloro-5-trifluoromethylphenylaminooxalyl)amino]phenyl}hex-4-ynoic acid, reference compound], the concentration giving a half-maximal response (EC50) on GPCR GPR40 (human) was determined as 2290 nM.

For orientation: EC50 means the concentration giving half of the maximal effect.
